Assay results taken from ChEMBL document CHEMBL1152560, “Substituted 2-arylbenzothiazoles as kinase inhibitors: hit-to-lead optimization” (Bioorg Med Chem, 2009).

Legend:
[1] = molecular target: Tyrosine-protein kinase ABL2 (Homo sapiens) (UniProt P42684); assay: Residual activity of ABL2 at 10 uM by microplate scintillation counting
[2] = molecular target: Serine/threonine-protein kinase Nek6 (Homo sapiens) (UniProt Q9HC98); assay: Residual activity of NEK6 at 1 uM by microplate scintillation counting
Sequence of Serine/threonine-protein kinase Nek6 (Homo sapiens) (Q9HC98 whole entry): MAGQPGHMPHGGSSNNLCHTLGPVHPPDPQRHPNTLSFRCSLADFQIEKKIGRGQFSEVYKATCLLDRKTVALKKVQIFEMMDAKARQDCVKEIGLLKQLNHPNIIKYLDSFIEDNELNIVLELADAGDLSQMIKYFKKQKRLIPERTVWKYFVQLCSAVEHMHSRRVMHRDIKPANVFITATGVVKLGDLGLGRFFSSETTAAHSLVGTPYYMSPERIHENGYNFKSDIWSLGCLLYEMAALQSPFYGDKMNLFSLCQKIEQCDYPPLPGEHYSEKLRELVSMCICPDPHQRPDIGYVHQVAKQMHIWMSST

[3] = molecular target: T1, Serine/threonine-protein kinase Sgk2 (Homo sapiens) (UniProt Q9HBY8); assay: Residual activity of SGK2 at 1 uM by microplate scintillation counting
T1 sequence (whole entry): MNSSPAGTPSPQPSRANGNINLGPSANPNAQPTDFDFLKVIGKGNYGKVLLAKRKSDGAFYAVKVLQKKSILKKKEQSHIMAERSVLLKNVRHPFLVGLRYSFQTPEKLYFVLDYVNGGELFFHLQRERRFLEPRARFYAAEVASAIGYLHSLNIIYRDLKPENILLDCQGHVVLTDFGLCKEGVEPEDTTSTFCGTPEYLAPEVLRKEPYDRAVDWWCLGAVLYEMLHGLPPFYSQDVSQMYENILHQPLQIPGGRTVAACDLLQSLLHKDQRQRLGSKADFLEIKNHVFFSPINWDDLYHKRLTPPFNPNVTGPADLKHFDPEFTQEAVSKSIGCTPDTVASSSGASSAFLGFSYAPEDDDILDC

[4] = molecular target: G protein-coupled receptor kinase 5 (Homo sapiens) (UniProt P34947); assay: Residual activity of GRK5 at 1 uM by microplate scintillation counting
Sequence of G protein-coupled receptor kinase 5 (Homo sapiens) (P34947 whole entry, looked up): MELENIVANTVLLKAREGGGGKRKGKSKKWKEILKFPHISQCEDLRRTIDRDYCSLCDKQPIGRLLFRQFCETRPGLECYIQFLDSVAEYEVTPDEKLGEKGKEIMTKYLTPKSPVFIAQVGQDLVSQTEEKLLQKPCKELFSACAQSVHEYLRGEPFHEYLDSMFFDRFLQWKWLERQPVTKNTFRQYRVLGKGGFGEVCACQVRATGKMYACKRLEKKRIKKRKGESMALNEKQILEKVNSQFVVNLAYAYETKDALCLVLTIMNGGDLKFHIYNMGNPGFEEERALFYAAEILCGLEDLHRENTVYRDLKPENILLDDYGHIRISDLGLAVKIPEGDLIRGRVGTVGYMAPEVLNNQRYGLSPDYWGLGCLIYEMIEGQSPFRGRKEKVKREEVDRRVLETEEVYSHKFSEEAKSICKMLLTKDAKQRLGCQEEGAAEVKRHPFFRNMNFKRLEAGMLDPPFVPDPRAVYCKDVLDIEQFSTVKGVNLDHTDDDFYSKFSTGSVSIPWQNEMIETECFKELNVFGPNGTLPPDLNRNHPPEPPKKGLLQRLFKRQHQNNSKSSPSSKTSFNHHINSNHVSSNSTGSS

[5] = molecular target: Serine/threonine-protein kinase SIK2 (Homo sapiens) (UniProt Q9H0K1); assay: Residual activity of SNF1LK2 at 0.1 uM by microplate scintillation counting
Sequence of Serine/threonine-protein kinase SIK2 (Homo sapiens) (Q9H0K1 whole entry, looked up): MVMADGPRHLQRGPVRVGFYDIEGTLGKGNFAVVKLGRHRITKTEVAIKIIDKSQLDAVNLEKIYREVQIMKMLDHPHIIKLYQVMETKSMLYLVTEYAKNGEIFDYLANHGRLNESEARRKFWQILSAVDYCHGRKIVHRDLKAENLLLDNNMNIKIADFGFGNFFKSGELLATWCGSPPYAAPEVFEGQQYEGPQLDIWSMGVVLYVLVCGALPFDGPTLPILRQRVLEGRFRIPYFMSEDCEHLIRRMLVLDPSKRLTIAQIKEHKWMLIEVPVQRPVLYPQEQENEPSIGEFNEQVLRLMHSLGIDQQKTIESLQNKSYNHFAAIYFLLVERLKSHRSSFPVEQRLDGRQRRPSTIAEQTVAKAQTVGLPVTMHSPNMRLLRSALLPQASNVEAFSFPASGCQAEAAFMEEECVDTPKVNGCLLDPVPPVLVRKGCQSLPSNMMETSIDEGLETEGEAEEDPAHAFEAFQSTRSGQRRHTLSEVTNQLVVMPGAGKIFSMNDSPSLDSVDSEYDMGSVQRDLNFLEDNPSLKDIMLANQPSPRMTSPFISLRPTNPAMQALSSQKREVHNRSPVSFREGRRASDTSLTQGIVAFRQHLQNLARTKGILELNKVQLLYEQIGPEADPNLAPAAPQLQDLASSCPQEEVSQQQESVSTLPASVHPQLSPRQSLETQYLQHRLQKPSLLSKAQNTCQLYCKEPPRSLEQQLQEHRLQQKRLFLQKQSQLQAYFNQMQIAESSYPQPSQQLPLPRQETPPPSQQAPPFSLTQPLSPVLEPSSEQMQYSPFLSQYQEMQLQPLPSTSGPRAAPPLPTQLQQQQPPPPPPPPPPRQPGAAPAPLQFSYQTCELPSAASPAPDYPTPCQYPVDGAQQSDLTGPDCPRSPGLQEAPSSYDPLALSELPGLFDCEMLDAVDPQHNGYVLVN

[6] = molecular target: CDK4/Cyclin D3 (Homo sapiens) (UniProt P11802+P30281); assay: Residual activity of CDK4/Cyclin D3 at 1 uM by microplate scintillation counting; type: protein-complex assay
[7] = molecular target: T2, Tyrosine-protein kinase Mer (Homo sapiens) (UniProt Q12866); assay: Residual activity of MERTK at 10 uM by microplate scintillation counting
T2 sequence (whole entry): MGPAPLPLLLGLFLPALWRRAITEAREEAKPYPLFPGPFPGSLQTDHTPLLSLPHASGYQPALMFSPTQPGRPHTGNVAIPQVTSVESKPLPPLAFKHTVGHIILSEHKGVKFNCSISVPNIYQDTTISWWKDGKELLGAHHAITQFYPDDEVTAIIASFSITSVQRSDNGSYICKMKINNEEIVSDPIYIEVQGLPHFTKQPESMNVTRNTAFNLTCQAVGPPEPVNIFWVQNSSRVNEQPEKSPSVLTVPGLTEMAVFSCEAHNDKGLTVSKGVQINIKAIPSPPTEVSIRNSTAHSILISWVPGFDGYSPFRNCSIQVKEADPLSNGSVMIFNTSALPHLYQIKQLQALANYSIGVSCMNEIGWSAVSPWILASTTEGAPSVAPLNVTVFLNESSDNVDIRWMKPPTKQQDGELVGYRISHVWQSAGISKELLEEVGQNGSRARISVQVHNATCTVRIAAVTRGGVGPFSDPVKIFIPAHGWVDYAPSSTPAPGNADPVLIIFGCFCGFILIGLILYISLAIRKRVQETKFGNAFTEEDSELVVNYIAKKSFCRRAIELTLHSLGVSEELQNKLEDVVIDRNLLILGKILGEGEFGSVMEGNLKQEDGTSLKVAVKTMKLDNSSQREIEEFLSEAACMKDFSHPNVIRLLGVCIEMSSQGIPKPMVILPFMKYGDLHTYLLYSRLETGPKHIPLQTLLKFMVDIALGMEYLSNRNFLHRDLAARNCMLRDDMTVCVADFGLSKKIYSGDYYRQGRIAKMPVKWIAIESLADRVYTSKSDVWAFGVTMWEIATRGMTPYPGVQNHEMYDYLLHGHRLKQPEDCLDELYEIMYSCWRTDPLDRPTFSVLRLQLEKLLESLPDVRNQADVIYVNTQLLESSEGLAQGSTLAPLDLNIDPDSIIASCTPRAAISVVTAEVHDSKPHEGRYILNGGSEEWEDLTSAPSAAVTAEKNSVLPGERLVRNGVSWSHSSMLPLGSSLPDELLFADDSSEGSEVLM

[8] = molecular target: T3, Testis-specific serine/threonine-protein kinase 2 (Homo sapiens) (UniProt Q96PF2); assay: Residual activity of TSK2 at 10 uM by microplate scintillation counting
T3 sequence (whole entry): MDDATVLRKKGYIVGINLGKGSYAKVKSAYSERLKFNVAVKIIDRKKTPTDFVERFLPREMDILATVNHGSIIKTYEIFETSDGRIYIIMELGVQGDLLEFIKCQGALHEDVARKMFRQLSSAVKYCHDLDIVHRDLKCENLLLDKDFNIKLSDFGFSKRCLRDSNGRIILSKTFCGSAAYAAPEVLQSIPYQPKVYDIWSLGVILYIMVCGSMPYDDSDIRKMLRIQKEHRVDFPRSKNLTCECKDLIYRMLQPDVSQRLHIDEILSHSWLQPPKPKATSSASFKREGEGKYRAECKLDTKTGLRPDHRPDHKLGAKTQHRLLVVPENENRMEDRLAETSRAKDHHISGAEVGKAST

[9] = molecular target: Ribosomal protein S6 kinase alpha-1 (Homo sapiens) (UniProt Q15418); assay: Residual activity of RPS6KA1 at 10 uM by microplate scintillation counting
Sequence of Ribosomal protein S6 kinase alpha-1 (Homo sapiens) (Q15418 whole entry): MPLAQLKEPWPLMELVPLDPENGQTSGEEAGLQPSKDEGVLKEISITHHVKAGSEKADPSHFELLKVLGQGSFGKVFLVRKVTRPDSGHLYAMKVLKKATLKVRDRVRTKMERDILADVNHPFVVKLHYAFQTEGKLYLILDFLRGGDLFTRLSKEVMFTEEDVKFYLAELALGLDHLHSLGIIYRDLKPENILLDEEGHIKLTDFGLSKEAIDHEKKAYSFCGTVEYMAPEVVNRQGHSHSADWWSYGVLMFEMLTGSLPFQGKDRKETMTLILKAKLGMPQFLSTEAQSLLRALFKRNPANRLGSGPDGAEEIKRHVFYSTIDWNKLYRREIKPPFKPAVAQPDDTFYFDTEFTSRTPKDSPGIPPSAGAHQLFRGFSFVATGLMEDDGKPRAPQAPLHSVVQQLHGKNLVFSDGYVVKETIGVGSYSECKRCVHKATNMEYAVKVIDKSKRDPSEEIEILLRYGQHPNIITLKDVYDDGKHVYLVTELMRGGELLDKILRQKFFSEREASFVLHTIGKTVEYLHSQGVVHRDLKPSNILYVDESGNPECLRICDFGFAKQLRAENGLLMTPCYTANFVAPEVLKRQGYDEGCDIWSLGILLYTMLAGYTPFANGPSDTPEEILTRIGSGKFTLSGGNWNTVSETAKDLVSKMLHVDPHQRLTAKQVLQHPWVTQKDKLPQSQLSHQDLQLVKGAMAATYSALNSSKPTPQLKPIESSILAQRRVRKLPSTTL

[10] = molecular target: CDK6/cyclin D1 (Homo sapiens) (UniProt P24385+Q00534); assay: Residual activity of CDK6/Cyclin D1 at 0.1 uM by microplate scintillation counting; type: protein-complex assay
[11] = molecular target: T4, TGF-beta receptor type-1 (Homo sapiens) (UniProt P36897); assay: Residual activity of TGFB-R1 at 10 uM by microplate scintillation counting
T4 sequence (whole entry): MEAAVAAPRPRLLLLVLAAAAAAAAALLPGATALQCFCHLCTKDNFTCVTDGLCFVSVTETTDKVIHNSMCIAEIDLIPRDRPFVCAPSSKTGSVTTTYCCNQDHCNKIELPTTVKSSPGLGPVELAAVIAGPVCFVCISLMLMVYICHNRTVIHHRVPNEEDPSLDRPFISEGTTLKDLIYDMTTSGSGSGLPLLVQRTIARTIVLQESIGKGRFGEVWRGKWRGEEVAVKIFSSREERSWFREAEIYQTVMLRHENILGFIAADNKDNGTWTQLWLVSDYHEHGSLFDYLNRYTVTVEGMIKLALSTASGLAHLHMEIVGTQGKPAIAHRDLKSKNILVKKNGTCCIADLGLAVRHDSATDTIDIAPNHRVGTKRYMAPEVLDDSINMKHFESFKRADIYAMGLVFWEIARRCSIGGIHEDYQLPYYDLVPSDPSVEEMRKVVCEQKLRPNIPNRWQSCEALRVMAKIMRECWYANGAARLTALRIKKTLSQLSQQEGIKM

[12] = molecular target: Serine/threonine-protein kinase Nek7 (Homo sapiens) (UniProt Q8TDX7); assay: Residual activity of NEK7 at 0.1 uM by microplate scintillation counting
Sequence of Serine/threonine-protein kinase Nek7 (Homo sapiens) (Q8TDX7 whole entry, looked up): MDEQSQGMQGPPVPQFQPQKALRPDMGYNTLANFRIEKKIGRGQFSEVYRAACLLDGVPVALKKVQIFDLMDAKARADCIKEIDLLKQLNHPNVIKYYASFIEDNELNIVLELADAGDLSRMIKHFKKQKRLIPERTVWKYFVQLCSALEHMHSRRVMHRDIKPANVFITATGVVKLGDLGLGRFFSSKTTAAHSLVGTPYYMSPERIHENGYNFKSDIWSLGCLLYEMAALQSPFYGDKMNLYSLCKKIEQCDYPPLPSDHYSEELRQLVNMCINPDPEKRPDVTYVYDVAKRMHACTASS

[13] = molecular target: Receptor tyrosine-protein kinase erbB-2 (Homo sapiens, UniProt P04626); assay: Residual activity of ERBB2 at 0.1 uM by microplate scintillation counting
Sequence of Receptor tyrosine-protein kinase erbB-2 (P04626 whole entry): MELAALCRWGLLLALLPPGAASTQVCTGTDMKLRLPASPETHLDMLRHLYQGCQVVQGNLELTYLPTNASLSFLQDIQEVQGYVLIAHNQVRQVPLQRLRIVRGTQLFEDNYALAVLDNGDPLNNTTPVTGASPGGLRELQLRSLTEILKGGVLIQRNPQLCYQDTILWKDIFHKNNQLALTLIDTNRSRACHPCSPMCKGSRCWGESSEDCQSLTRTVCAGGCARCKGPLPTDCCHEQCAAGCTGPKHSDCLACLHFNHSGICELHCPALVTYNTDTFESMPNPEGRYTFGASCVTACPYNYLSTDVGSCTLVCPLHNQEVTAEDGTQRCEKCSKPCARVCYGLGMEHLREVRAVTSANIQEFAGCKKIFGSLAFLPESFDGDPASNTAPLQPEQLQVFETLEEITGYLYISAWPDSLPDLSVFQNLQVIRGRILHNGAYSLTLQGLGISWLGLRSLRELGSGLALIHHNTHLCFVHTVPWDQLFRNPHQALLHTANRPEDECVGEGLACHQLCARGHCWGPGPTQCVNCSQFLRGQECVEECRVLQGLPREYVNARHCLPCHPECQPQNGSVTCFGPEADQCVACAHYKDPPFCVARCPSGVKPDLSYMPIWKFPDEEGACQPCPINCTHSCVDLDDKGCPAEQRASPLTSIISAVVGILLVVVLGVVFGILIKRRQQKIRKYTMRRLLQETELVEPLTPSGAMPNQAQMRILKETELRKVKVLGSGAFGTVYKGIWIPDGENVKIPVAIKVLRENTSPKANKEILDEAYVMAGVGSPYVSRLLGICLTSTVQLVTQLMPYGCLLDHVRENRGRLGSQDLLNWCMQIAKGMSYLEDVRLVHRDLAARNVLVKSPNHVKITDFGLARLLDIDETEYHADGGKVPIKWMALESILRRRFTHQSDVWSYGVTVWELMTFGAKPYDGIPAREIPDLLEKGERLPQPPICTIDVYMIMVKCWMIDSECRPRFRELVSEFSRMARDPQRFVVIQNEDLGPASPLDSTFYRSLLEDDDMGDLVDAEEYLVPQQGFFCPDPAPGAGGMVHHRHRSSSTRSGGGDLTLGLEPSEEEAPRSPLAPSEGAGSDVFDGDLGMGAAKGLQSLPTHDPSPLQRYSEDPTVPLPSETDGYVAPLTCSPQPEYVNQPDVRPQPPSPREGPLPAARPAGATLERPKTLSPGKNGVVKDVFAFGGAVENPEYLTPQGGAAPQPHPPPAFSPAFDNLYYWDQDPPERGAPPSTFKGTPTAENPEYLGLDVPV

| SMILES | residual activity [1] [%] | residual activity [2] [%] | residual activity [3] [%] | residual activity [4] [%] | residual activity [5] [%] | residual activity [6] [%] | residual activity [7] [%] | residual activity [8] [%] | residual activity [9] [%] | residual activity [10] [%] | residual activity [11] [%] | residual activity [12] [%] | residual activity [13] [%] |
| --- | --- | --- | --- | --- | --- | --- | --- | --- | --- | --- | --- | --- | --- |
| COc1cc2c(Oc3ccc(-c4nc5ccccc5s4)cc3F)ncnc2cc1OCCCN1CCN(C)CC1 | 93 | 102 | 93 | 90 | 88 | 86 | 2 | 111 | 222 | 107 | 94 | 97 | 97 |
| COc1cc2c(Oc3ccc(-c4nc5ccccc5s4)cc3)ncnc2cc1OCCCN1CCCC1 | 147 | 84 | 93 | 89 | 80 | 105 | 1 | 110 | 124 | 91 | 100 | 95 | 112 |
| COc1cc2c(Oc3ccc(-c4nc5ccccc5s4)cc3)ncnc2cc1OCCCN1CCN(C)CC1 | 170 | 96 | 95 | 87 | 93 | 95 | 3 | 109 | 206 | 99 | 94 | 83 | 103 |
